The subject of the test is P388 leukemia ip, CD2F1 mice, survival T/C. The test is described as follows: NCI In Vivo Anticancer Drug Screen. Data for tumor model P388 Leukemia (intraperitoneal) in CD2F1 (CDF1) mice. Particulars: endpoint: median survival time, higher = longer survival. The method in brief:
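Mice carrying the transplanted tumor received test compound or vehicle. Survival was recorded in each group, and the value is the treated-group measurement divided by that of the vehicle-treated control group.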

[1] abbreviates: dose: 60.0 mg/kg/injection, schedule: Q01DX005 (ip), vehicle: saline with Tween-80.
The mark [2] stands for this setting: dose: 120.0 mg/kg/injection, schedule: Q01DX005 (ip), vehicle: saline with Tween-80.
[3] abbreviates: dose: 240.0 mg/kg/injection, schedule: Q01DX005 (ip), vehicle: saline with Tween-80.
Where [4] appears, read: dose: 50.0 mg/kg/injection, schedule: Q01DX009 (ip), vehicle: saline with Tween-80.
Setting [5] is: dose: 100.0 mg/kg/injection, schedule: Q01DX009 (ip), vehicle: saline with Tween-80.
Where [6] appears, read: dose: 200.0 mg/kg/injection, schedule: Q01DX009 (ip), vehicle: saline with Tween-80.

Each structure is given as a SMILES string. Several values for one entry are separate records, joined by “and”; a condition that tells them apart may be missing. Equal values may be shown once. Inconclusive results and toxic doses are left out.

Turning to `CCOP(=O)(OCC)C1OCC(O)C(C2OC(P(=O)(OCC)OCC)OCC2O)O1` (configuration not stated), the T/C was 109 % of control (dose: 50.0 mg/kg/injection, schedule: Q01DX009 (ip), vehicle: saline); 112 % of control (dose: 100.0 mg/kg/injection, schedule: Q01DX009 (ip), vehicle: saline); 112 % of control (dose: 200.0 mg/kg/injection, schedule: Q01DX009 (ip), vehicle: saline).
With `CCN(CC)c1ccc2cc(-c3nc4ccccc4n3C)c(=O)oc2c1`, under “dose: 200.0 mg/kg/injection, schedule: Q04DX003 (ip), vehicle: Klucel (hydroxypropylcellulose) (HPC)”, the T/C was 183 % of control.
For `O=C1c2cc(Oc3ccccc3)c(S(=O)(=O)O)c(S(=O)(=O)O)c2C(=O)c2c(O)ccc(O)c21`, the T/C by setting is: (dose: 25.0 mg/kg/injection, schedule: Q01DX005 (ip), vehicle: saline) 104 % of control; (dose: 50.0 mg/kg/injection, schedule: Q01DX005 (ip), vehicle: saline) 107 % of control; (dose: 100.0 mg/kg/injection, schedule: Q01DX005 (ip), vehicle: saline) 94 % of control; (dose: 200.0 mg/kg/injection, schedule: Q01DX005 (ip), vehicle: saline) 94 % of control.
`CC(=O)C1=C(O)C2(O)C(=O)c3c(c(C)c4ccc(C)c(O)c4c3O)CC2C(N)C1=O` (configuration not stated): the T/C was 103 % of control and 107 % of control and 120 % of control (dose: 7.5 mg/kg/injection, schedule: Q01DX009 (ip), vehicle: saline + alcohol); 103 % of control (dose: 15.0 mg/kg/injection, schedule: Q01DX009 (ip), vehicle: saline + alcohol); 119 % of control (dose: 30.0 mg/kg/injection, schedule: Q01DX009 (ip), vehicle: saline + alcohol); 111 % of control (dose: 50.0 mg/kg/injection, schedule: Q04DX003 (ip), vehicle: saline with Tween-80); 111 % of control (dose: 100.0 mg/kg/injection, schedule: Q04DX003 (ip), vehicle: saline with Tween-80).
Take `COC(=O)c1nc(NC#N)[nH]c(=O)c1CCCCCc1cnc(NC#N)nc1`: the T/C is 100 % of control under setting [1], 100 % of control under setting [2] and 97 % of control under setting [3].
For the compound `O=S1(=O)CCN(Cc2ccco2)CC1`, the T/C is 100 % of control (dose: 50.0 mg/kg/injection, schedule: Q01DX009 (ip), vehicle: Klucel (hydroxypropylcellulose) (HPC)) and 99 % of control (dose: 100.0 mg/kg/injection, schedule: Q01DX009 (ip), vehicle: Klucel (hydroxypropylcellulose) (HPC)).
For the compound `O=C(NC(CC(NC(=O)OCc1ccccc1)NC(=O)OCc1ccccc1)NC(=O)OCc1ccccc1)OCc1ccccc1`, the T/C was 89 % of control under setting [1], 91 % of control under setting [2] and 103 % of control under setting [3].
Consider `COc1cc(NC(C)CCCN)c2ncccc2c1Oc1ccc(Cl)cc1` (configuration not stated), for which the T/C is, setting by setting: (dose: 12.5 mg/kg/injection, schedule: Q01DX009 (ip), vehicle: saline with Tween-80) 91 % of control; (dose: 25.0 mg/kg/injection, schedule: Q01DX009 (ip), vehicle: saline with Tween-80) 90 % of control; under setting [4], 94 % of control.
On to `CCOc1ccc(S(=O)(=O)c2ccc(C)cc2)c2c1no[n+]2[O-]`, for which the T/C runs as follows: (dose: 3.75 mg/kg/injection, schedule: Q01DX009 (ip), vehicle: saline with Tween-80) 101 % of control; (dose: 7.5 mg/kg/injection, schedule: Q01DX009 (ip), vehicle: saline with Tween-80) 99 % of control and 95 % of control; (dose: 15.0 mg/kg/injection, schedule: Q01DX009 (ip), vehicle: saline with Tween-80) 107 % of control.
As to `COC(=O)c1ccccc1-c1ccccc1C=O`, the T/C (dose: 100.0 mg/kg/injection, schedule: Q04DX002 (ip), vehicle: saline with Tween-80) is 97 % of control; the T/C (dose: 200.0 mg/kg/injection, schedule: Q04DX002 (ip), vehicle: saline with Tween-80) was 98 % of control; the T/C (dose: 400.0 mg/kg/injection, schedule: Q04DX002 (ip), vehicle: saline with Tween-80) is 100 % of control.
In the case of `O=C1COC(c2ccccc2O)=NN1CCCN1CCCC1`, the T/C was 100 % of control (dose: 12.5 mg/kg/injection, schedule: Q01DX001 (ip), vehicle: saline); 100 % of control (dose: 25.0 mg/kg/injection, schedule: Q01DX001 (ip), vehicle: saline); 107 % of control (dose: 50.0 mg/kg/injection, schedule: Q01DX001 (ip), vehicle: saline); 103 % of control (dose: 100.0 mg/kg/injection, schedule: Q01DX001 (ip), vehicle: saline).
In the case of `COc1ccc(C(=O)O)c(N)c1`, the T/C was 90 % of control under setting [5]; 95 % of control under setting [6]; 109 % of control (dose: 400.0 mg/kg/injection, schedule: Q01DX009 (ip), vehicle: saline with Tween-80).
Regarding `O=C1CN(Cc2cccc(Cl)c2)CC(=O)N2Cc3ccccc3CN12`, the T/C is 106 % of control (dose: 50.0 mg/kg/injection, schedule: Q01DX005 (ip), vehicle: saline with Tween-80) and 98 % of control (dose: 100.0 mg/kg/injection, schedule: Q01DX005 (ip), vehicle: saline with Tween-80).
As for `Nc1ccc2nc3ccc(N)cc3[n+](-c3ccccc3)c2c1`, the T/C is 100 % of control (dose: 0.39 mg/kg/injection, schedule: Q04DX003 (ip), vehicle: saline); 95 % of control (dose: 0.78 mg/kg/injection, schedule: Q04DX003 (ip), vehicle: saline); 95 % of control (dose: 1.56 mg/kg/injection, schedule: Q04DX003 (ip), vehicle: saline); 95 % of control (dose: 3.13 mg/kg/injection, schedule: Q04DX003 (ip), vehicle: saline); 95 % of control (dose: 6.25 mg/kg/injection, schedule: Q04DX003 (ip), vehicle: saline); 154 % of control (dose: 8.0 mg/kg/injection, schedule: Q01DX009 (ip), vehicle: saline with Tween-80). For the same compound, the T/C was 154 % of control (dose: 12.0 mg/kg/injection, schedule: Q01DX009 (ip), vehicle: saline with Tween-80); 95 % of control (dose: 12.5 mg/kg/injection, schedule: Q04DX003 (ip), vehicle: saline); 86 % of control (dose: 18.0 mg/kg/injection, schedule: Q01DX009 (ip), vehicle: saline with Tween-80).
As to `N#Cc1ccc(NC(=O)Nc2ccc(Cc3ccc(NC(=O)Nc4ccc(C#N)cc4)cc3)cc2)cc1`, the T/C reads like this: (dose: 15.0 mg/kg/injection, schedule: Q01DX005 (ip), vehicle: Klucel (hydroxypropylcellulose) (HPC)) 97 % of control; (dose: 30.0 mg/kg/injection, schedule: Q01DX005 (ip), vehicle: Klucel (hydroxypropylcellulose) (HPC)) 90 % of control; (dose: 60.0 mg/kg/injection, schedule: Q01DX005 (ip), vehicle: Klucel (hydroxypropylcellulose) (HPC)) 87 % of control; (dose: 120.0 mg/kg/injection, schedule: Q01DX005 (ip), vehicle: Klucel (hydroxypropylcellulose) (HPC)) 94 % of control.
`O=C(O)CC[n+]1cccc2c1C(=O)C(=O)c1ncccc1-2`: the T/C by setting is: (dose: 100.0 mg/kg/injection, schedule: Q04DX002 (ip), vehicle: saline) 114 % of control; (dose: 200.0 mg/kg/injection, schedule: Q04DX002 (ip), vehicle: saline) 107 % of control.
Consider `CCCN1CC=CCC1`, for which the T/C is, setting by setting: (dose: 60.0 mg/kg/injection, schedule: Q01DX005 (ip), vehicle: saline) 100 % of control; (dose: 120.0 mg/kg/injection, schedule: Q01DX005 (ip), vehicle: saline) 100 % of control; (dose: 240.0 mg/kg/injection, schedule: Q01DX005 (ip), vehicle: saline) 100 % of control.
As for `C=CCC1CCCCC1=O` (configuration not stated) (tested in a mixture with another compound), the T/C reads like this: under setting [4], 105 % of control; under setting [5], 104 % of control; under setting [6], 115 % of control.
Regarding `C=C1C(=O)OC2C/C(C)=C/CC/C(C)=C/CCC3(C)OC3CC12` (configuration not stated), the T/C is 104 % of control (dose: 4.0 mg/kg/injection, schedule: Q01DX009 (ip), vehicle: Klucel (hydroxypropylcellulose) (HPC)); 104 % of control (dose: 8.0 mg/kg/injection, schedule: Q01DX009 (ip), vehicle: Klucel (hydroxypropylcellulose) (HPC)); 108 % of control (dose: 16.0 mg/kg/injection, schedule: Q01DX009 (ip), vehicle: Klucel (hydroxypropylcellulose) (HPC)); 105 % of control (dose: 32.0 mg/kg/injection, schedule: Q01DX009 (ip), vehicle: Klucel (hydroxypropylcellulose) (HPC)).
As to `C/C(=N\NC(=S)N1CCCC1)c1ccc[nH]1`, the T/C runs as follows: (dose: 50.0 mg/kg/injection, schedule: Q01DX005 (ip), vehicle: Klucel (hydroxypropylcellulose) (HPC)) 102 % of control; (dose: 100.0 mg/kg/injection, schedule: Q01DX005 (ip), vehicle: Klucel (hydroxypropylcellulose) (HPC)) 114 % of control; (dose: 200.0 mg/kg/injection, schedule: Q01DX005 (ip), vehicle: Klucel (hydroxypropylcellulose) (HPC)) 89 % of control.

The values are drawn from PubChem BioAssay AID330 (DTP/NCI, 2004).
